# Measurements reported in paper PMC11070402, “New antiproliferative 3-substituted oxindoles inhibiting EGFR/VEGFR-2 and tubulin polymerization” (Molecular Diversity, 2023).
# Tested on: 60 human cancer cell lines
# Experiment: NCI one-dose assay against sixty NCI cancer cell lines
# Format: cell-based
# Details: ACHN (Renal Cancer), 10 uM single dose, read-out: Growth inhibition %
# Description: (§1) All novel scaffolds 6a–j were carefully selected by the National Cancer Institute (NCI), Bethesda, USA, to elucidate their cytotoxic activity versus 60 human cancer cell lines at 10 µM as a single-dose concentration after a 48 h incubation period.
# (§2) National Cancer Institution selected all the synthesized 6a–j (NCI), Bethesda, USA, for in vitro one-dose antitumor assay. The methodology protocol for the NCI anticancer screening was reported in detail elsewhere (http://www.dtp.nci.nih.gov). The anticancer assay was performed in full NCI 60 cell lines extracted from nine tumor cell lines, including leukemia, melanoma, lung, colon, CNS, ovarian, renal, prostate, and breast cancer cell lines.
row,Structure (SMILES),inhibition at 10 µM [%]
1,"O=C1Nc2cc(Cl)ccc2C1=Cc1ccc(OCC(=O)c2ccccc2)cc1 [Compound 6c, 6-Chloro-3-{4-[2-oxo-2-phenylethoxy]benzylidene}indolin-2-one]",15.9

# Same assay, conditions: CAKI-1 (Renal Cancer), 10 uM single dose, read-out: Growth inhibition %
row,Structure (SMILES),inhibition at 10 µM [%]
1,"O=C1Nc2ccccc2C1=Cc1ccc(OCC(=O)c2ccccc2)cc1 [Compound 6a, 3-{4-[2-Oxo-2-phenylethoxy]benzylidene}indolin-2-one]",13.1
2,"O=C1Nc2cc(Cl)ccc2C1=Cc1ccc(OCC(=O)c2ccccc2)cc1 [Compound 6c, 6-Chloro-3-{4-[2-oxo-2-phenylethoxy]benzylidene}indolin-2-one]",26.4

# Same assay, conditions: HCT-15 (Colon Cancer), 10 uM single dose, read-out: Growth inhibition %
row,Structure (SMILES),inhibition at 10 µM [%]
1,"O=C1Nc2cc(Cl)ccc2C1=Cc1ccc(OCC(=O)c2ccccc2)cc1 [Compound 6c, 6-Chloro-3-{4-[2-oxo-2-phenylethoxy]benzylidene}indolin-2-one]",23.5

# Same assay, conditions: HCT-116 (Colon Cancer), 10 uM single dose, read-out: Growth inhibition %
row,Structure (SMILES),inhibition at 10 µM [%]
1,"O=C1Nc2cc(Cl)ccc2C1=Cc1ccc(OCC(=O)c2ccccc2)cc1 [Compound 6c, 6-Chloro-3-{4-[2-oxo-2-phenylethoxy]benzylidene}indolin-2-one]",12.2

# Same assay, conditions: HS 578T (Breast Cancer), 10 uM single dose, read-out: Growth inhibition %
row,Structure (SMILES),inhibition at 10 µM [%]
1,"O=C1Nc2cc(Cl)ccc2C1=Cc1ccc(OCC(=O)c2ccccc2)cc1 [Compound 6c, 6-Chloro-3-{4-[2-oxo-2-phenylethoxy]benzylidene}indolin-2-one]",12.6

# Same assay, conditions: IGROV-1, IGROV1 (Ovarian Cancer), 10 uM single dose, read-out: Growth inhibition %
row,Structure (SMILES),inhibition at 10 µM [%]
1,"O=C1Nc2cc(Cl)ccc2C1=Cc1ccc(OCC(=O)c2ccccc2)cc1 [Compound 6c, 6-Chloro-3-{4-[2-oxo-2-phenylethoxy]benzylidene}indolin-2-one]",20.1

# Same assay, conditions: M14 (Melanoma), 10 uM single dose, read-out: Growth inhibition %
row,Structure (SMILES),inhibition at 10 µM [%]
1,"O=C1Nc2cc(Cl)ccc2C1=Cc1ccc(OCC(=O)c2ccccc2)cc1 [Compound 6c, 6-Chloro-3-{4-[2-oxo-2-phenylethoxy]benzylidene}indolin-2-one]",11.1

# Same assay, conditions: NCI-H226 (Non-Small Cell Lung Cancer), 10 uM single dose, read-out: Growth inhibition %
row,Structure (SMILES),inhibition at 10 µM [%]
1,"O=C1Nc2ccccc2C1=Cc1ccc(OCC(=O)c2ccccc2)cc1 [Compound 6a, 3-{4-[2-Oxo-2-phenylethoxy]benzylidene}indolin-2-one]",11
2,"O=C1Nc2cc(Cl)ccc2C1=Cc1ccc(OCC(=O)c2ccccc2)cc1 [Compound 6c, 6-Chloro-3-{4-[2-oxo-2-phenylethoxy]benzylidene}indolin-2-one]",13.2

# Same assay, conditions: NCI-H322M (Non-Small Cell Lung Cancer), 10 uM single dose, read-out: Growth inhibition %
row,Structure (SMILES),inhibition at 10 µM [%]
1,"O=C1Nc2cc(Cl)ccc2C1=Cc1ccc(OCC(=O)c2ccccc2)cc1 [Compound 6c, 6-Chloro-3-{4-[2-oxo-2-phenylethoxy]benzylidene}indolin-2-one]",11.6

# Same assay, conditions: NCI-H522 (Non-Small Cell Lung Cancer), 10 uM single dose, read-out: Growth inhibition %
row,Structure (SMILES),inhibition at 10 µM [%]
1,"O=C1Nc2cc(Cl)ccc2C1=Cc1ccc(OCC(=O)c2ccccc2)cc1 [Compound 6c, 6-Chloro-3-{4-[2-oxo-2-phenylethoxy]benzylidene}indolin-2-one]",11.7

# Same assay, conditions: OVCAR-3 (Ovarian Cancer), 10 uM single dose, read-out: Growth inhibition %
row,Structure (SMILES),inhibition at 10 µM [%]
1,"O=C1Nc2cc(Cl)ccc2C1=Cc1ccc(OCC(=O)c2ccccc2)cc1 [Compound 6c, 6-Chloro-3-{4-[2-oxo-2-phenylethoxy]benzylidene}indolin-2-one]",10.8

# Same assay, conditions: PC-3 (Prostate Cancer), 10 uM single dose, read-out: Growth inhibition %
row,Structure (SMILES),inhibition at 10 µM [%]
1,"O=C1Nc2ccccc2C1=Cc1ccc(OCC(=O)c2ccccc2)cc1 [Compound 6a, 3-{4-[2-Oxo-2-phenylethoxy]benzylidene}indolin-2-one]",17.1
2,"O=C1Nc2cc(Cl)ccc2C1=Cc1ccc(OCC(=O)c2ccccc2)cc1 [Compound 6c, 6-Chloro-3-{4-[2-oxo-2-phenylethoxy]benzylidene}indolin-2-one]",28.5

# Same assay, conditions: RXF 393 (Renal Cancer), 10 uM single dose, read-out: Growth inhibition %
row,Structure (SMILES),inhibition at 10 µM [%]
1,"O=C1Nc2cc(Cl)ccc2C1=Cc1ccc(OCC(=O)c2ccccc2)cc1 [Compound 6c, 6-Chloro-3-{4-[2-oxo-2-phenylethoxy]benzylidene}indolin-2-one]",16.4

# Same assay, conditions: SF-268 (CNS Cancer), 10 uM single dose, read-out: Growth inhibition %
row,Structure (SMILES),inhibition at 10 µM [%]
1,"O=C1Nc2cc(Cl)ccc2C1=Cc1ccc(OCC(=O)c2ccccc2)cc1 [Compound 6c, 6-Chloro-3-{4-[2-oxo-2-phenylethoxy]benzylidene}indolin-2-one]",11.4

# Same assay, conditions: SF-539 (CNS Cancer), 10 uM single dose, read-out: Growth inhibition %
row,Structure (SMILES),inhibition at 10 µM [%]
1,"O=C1Nc2cc(Cl)ccc2C1=Cc1ccc(OCC(=O)c2ccccc2)cc1 [Compound 6c, 6-Chloro-3-{4-[2-oxo-2-phenylethoxy]benzylidene}indolin-2-one]",13.8

# Same assay, conditions: UACC-62 (Melanoma), 10 uM single dose, read-out: Growth inhibition %
row,Structure (SMILES),inhibition at 10 µM [%]
1,"O=C1Nc2ccccc2C1=Cc1ccc(OCC(=O)c2ccccc2)cc1 [Compound 6a, 3-{4-[2-Oxo-2-phenylethoxy]benzylidene}indolin-2-one]",12.9
2,"O=C1Nc2cc(Cl)ccc2C1=Cc1ccc(OCC(=O)c2ccccc2)cc1 [Compound 6c, 6-Chloro-3-{4-[2-oxo-2-phenylethoxy]benzylidene}indolin-2-one]",27.9

# Tested on: NCI/ADR-RES (ovarian cancer cell line)
# Experiment: NCI one-dose assay, NCI/ADR-RES
# Format: cell-based
# Details: Homo sapiens; NCI/ADR-RES (Ovarian Cancer), 10 uM single dose; read-out: Growth inhibition %
# Description: as §1, §2
row,Structure (SMILES),inhibition at 10 µM [%]
1,"O=C1Nc2ccccc2C1=Cc1ccc(OCC(=O)c2ccccc2)cc1 [Compound 6a, 3-{4-[2-Oxo-2-phenylethoxy]benzylidene}indolin-2-one]",1.84

# Tested on: K-562
# Experiment: NCI one-dose assay, K-562
# Format: cell-based
# Details: Homo sapiens, K562; K-562 (Leukemia), 10 uM single dose; read-out: Growth inhibition %
# Description: as §1, §2
row,Structure (SMILES),inhibition at 10 µM [%]
1,"O=C1Nc2ccccc2C1=Cc1ccc(OCC(=O)c2ccccc2)cc1 [Compound 6a, 3-{4-[2-Oxo-2-phenylethoxy]benzylidene}indolin-2-one]",11.1
2,"O=C1Nc2cc(Cl)ccc2C1=Cc1ccc(OCC(=O)c2ccccc2)cc1 [Compound 6c, 6-Chloro-3-{4-[2-oxo-2-phenylethoxy]benzylidene}indolin-2-one]",18

# Tested on: LOX IMVI
# Experiment: NCI one-dose assay, LOX IMVI
# Format: cell-based
# Details: Homo sapiens; LOX IMVI (Melanoma), 10 uM single dose; read-out: Growth inhibition %
# Description: as §1, §2
row,Structure (SMILES),inhibition at 10 µM [%]
1,"O=C1Nc2cc(Cl)ccc2C1=Cc1ccc(OCC(=O)c2ccccc2)cc1 [Compound 6c, 6-Chloro-3-{4-[2-oxo-2-phenylethoxy]benzylidene}indolin-2-one]",16.5

# Tested on: MCF-7
# Experiment: NCI one-dose assay, MCF-7
# Format: cell-based, human
# Details: Homo sapiens, MCF7, MCF7 (Breast Cancer), 10 uM single dose; read-out: Growth inhibition %
# Description: as §1, §2
row,Structure (SMILES),inhibition at 10 µM [%]
1,"O=C1Nc2ccccc2C1=Cc1ccc(OCC(=O)c2ccccc2)cc1 [Compound 6a, 3-{4-[2-Oxo-2-phenylethoxy]benzylidene}indolin-2-one]",11.3
2,"O=C1Nc2cc(Cl)ccc2C1=Cc1ccc(OCC(=O)c2ccccc2)cc1 [Compound 6c, 6-Chloro-3-{4-[2-oxo-2-phenylethoxy]benzylidene}indolin-2-one]",38.2

# Tested on: UO-31
# Experiment: NCI one-dose assay, UO-31
# Format: cell-based
# Details: Homo sapiens; UO-31 (Renal Cancer), 10 uM single dose; read-out: Growth inhibition %
# Description: as §1, §2
row,Structure (SMILES),inhibition at 10 µM [%]
1,"O=C1Nc2ccccc2C1=Cc1ccc(OCC(=O)c2ccccc2)cc1 [Compound 6a, 3-{4-[2-Oxo-2-phenylethoxy]benzylidene}indolin-2-one]",30.5
2,"O=C1Nc2cc(Cl)ccc2C1=Cc1ccc(OCC(=O)c2ccccc2)cc1 [Compound 6c, 6-Chloro-3-{4-[2-oxo-2-phenylethoxy]benzylidene}indolin-2-one]",35

# Tested on: not given
# Experiment: not given
# Details: not given
row,Structure (SMILES),melting point [°C]
1,"O=C1Nc2ccccc2C1=Cc1ccc(OCC(=O)c2ccccc2)cc1 [Compound 6a, 3-{4-[2-Oxo-2-phenylethoxy]benzylidene}indolin-2-one]",219 to 221
2,"O=C1Nc2cc(Cl)ccc2C1=Cc1ccc(OCC(=O)c2ccccc2)cc1 [Compound 6c, 6-Chloro-3-{4-[2-oxo-2-phenylethoxy]benzylidene}indolin-2-one]",199 to 201

# Tested on: T-47D
# Experiment: NCI one-dose assay, T-47D
# Format: cell-based
# Details: Homo sapiens, T47D; T-47D (Breast Cancer), 10 uM single dose; read-out: Growth inhibition %
# Description: as §1, §2
row,Structure (SMILES),inhibition at 10 µM [%]
1,"O=C1Nc2cc(Cl)ccc2C1=Cc1ccc(OCC(=O)c2ccccc2)cc1 [Compound 6c, 6-Chloro-3-{4-[2-oxo-2-phenylethoxy]benzylidene}indolin-2-one]",16.3

# Tested on: SNB-75 cells (CNS cancer cell line)
# Experiment: NCI one-dose assay, SNB-75
# Format: cell-based
# Details: Homo sapiens; SNB-75 (CNS Cancer), 10 uM single dose; read-out: Growth inhibition %
# Description: as §1, §2
row,Structure (SMILES),inhibition at 10 µM [%]
1,"O=C1Nc2ccccc2C1=Cc1ccc(OCC(=O)c2ccccc2)cc1 [Compound 6a, 3-{4-[2-Oxo-2-phenylethoxy]benzylidene}indolin-2-one]",26.2

# Same assay, conditions: Homo sapiens; SNB-75; 10 µM single dose, 48 h incubation; read-out: cell growth inhibition % (GI %)
row,Structure (SMILES),inhibition at 10 µM [%]
1,"O=C1Nc2cc(Cl)ccc2C1=Cc1ccc(OCC(=O)c2ccccc2)cc1 [Compound 6c, 6-Chloro-3-{4-[2-oxo-2-phenylethoxy]benzylidene}indolin-2-one]",41.2
